Assay [1] addresses T1, human TLR2 (Pam2CSK4, TLR2/6 agonist) in HEK-Blue hTLR2 cells (Homo sapiens, UniProt O60603).
T1 construct: host or cells: HEK-Blue hTLR2 (HEK-293)
Nature of the assay: HEK-Blue hTLR2 antagonism assay (SEAP reporter) with Pam2CSK4 as agonist. In kind it is cell-based. The following applies: 2 h compound pre-incubation, approx. 3×EC50 Pam2CSK4, 18 h, SEAP OD 655 nm, background subtracted. In short, it runs like this: (§1)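 HEK-Blue hTLR2 cells (HEK-293 with human TLR2 and NFκB-driven SEAP), 1×10^5/well, pretreated with compound (1% DMSO final) for 2 h, then stimulated with about 3×EC50 Pam3CSK4 or Pam2CSK4 (EC50 set each run) for 18 h at 37 °C. Supernatant SEAP read by Quanti-Blue at OD 655 nm after 15 min; background-subtracted IC50.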

Assay [2] addresses T2, human TLR2 (Pam3CSK4, TLR1/2 agonist) in HEK-Blue hTLR2 cells (Homo sapiens, UniProt O60603).
T2 construct: host or cells: HEK-Blue hTLR2 (HEK-293)
The assay is described as follows: HEK-Blue hTLR2 antagonism assay (SEAP reporter) with Pam3CSK4 as agonist. The note with it: 2 h compound pre-incubation, approx. 3×EC50 Pam3CSK4, 18 h, SEAP OD 655 nm, background subtracted. In kind it is cell-based. The essentials:
as §1

T1 sequence (O60603 19-784 limits assumed): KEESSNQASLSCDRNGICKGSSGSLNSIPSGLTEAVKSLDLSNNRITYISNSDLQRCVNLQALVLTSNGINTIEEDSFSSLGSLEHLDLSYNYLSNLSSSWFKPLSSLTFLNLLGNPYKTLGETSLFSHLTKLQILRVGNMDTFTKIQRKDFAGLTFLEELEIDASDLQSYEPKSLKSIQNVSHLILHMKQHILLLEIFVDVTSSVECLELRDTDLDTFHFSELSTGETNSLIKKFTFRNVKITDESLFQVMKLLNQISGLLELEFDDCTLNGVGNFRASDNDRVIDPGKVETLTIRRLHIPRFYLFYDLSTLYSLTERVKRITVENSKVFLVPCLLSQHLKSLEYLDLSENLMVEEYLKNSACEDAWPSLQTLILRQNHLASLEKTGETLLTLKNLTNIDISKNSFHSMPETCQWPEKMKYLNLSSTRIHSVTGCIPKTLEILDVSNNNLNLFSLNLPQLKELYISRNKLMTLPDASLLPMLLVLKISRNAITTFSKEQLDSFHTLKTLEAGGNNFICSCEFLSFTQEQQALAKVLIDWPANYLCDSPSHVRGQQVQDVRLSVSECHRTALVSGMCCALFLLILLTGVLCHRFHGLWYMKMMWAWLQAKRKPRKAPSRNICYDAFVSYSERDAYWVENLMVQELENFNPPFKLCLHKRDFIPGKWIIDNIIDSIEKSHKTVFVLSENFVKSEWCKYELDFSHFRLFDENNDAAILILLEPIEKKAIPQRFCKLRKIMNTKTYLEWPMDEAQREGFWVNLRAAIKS
T2 sequence (O60603 19-784 limits assumed): as above

By IC50 is commonly meant the concentration needed to halve the response being measured. A low value points to higher potency. Take `COc1cc(/C=C/c2ccc(N3CCOCC3)cc2)cc(C=O)c1O` [compound 40, (E)-2-hydroxy-3-methoxy-5-(4-morpholinostyryl)benzaldehyde]: the half-inhibitory concentration (IC50) in assay [1] turned out to be 2.3 µM; in assay [2], 2.5 µM.
For `Cc1ccc(/C=C/c2cc(F)c(O)c(C=O)c2)cn1` [compound 29, (E)-3-fluoro-2-hydroxy-5-(2-(6-methylpyridin-3-yl)vinyl)benzaldehyde], the IC50 was found to be 9.1 µM in assay [1] and 10 µM in assay [2].
For `COc1cc(/C=C/c2ccc3ncccc3c2)cc(C=O)c1O` [compound 58, (E)-2-hydroxy-3-methoxy-5-(2-(quinolin-6-yl)vinyl)benzaldehyde] the same measures were 4.9 µM and 5 µM.
For `Oc1c(F)cc(/C=C/c2ccc(N3CCCC3)cc2)cc1/C=N/N1CCOCC1` [compound 94, 2-fluoro-6-((E)-(morpholinoimino)methyl)-4-((E)-4-(pyrrolidin-1-yl)styryl)phenol] the same measures were 2.9 µM and 1.4 µM.
On to `COc1cc(-c2cc3c(s2)CCN(C(=O)C2CC2)C3)cc(C(=O)/C=C/c2ccccc2)c1O` [compound 74, (E)-1-(5-(5-(cyclopropanecarbonyl)-4,5,6,7-tetrahydrothieno[3,2-c]pyridin-2-yl)-2-hydroxy-3-methoxyphenyl)-3-phenylprop-2-en-1-one], for which the IC50 in assay [1] turned out to be 6.3 µM; in assay [2] it was 7 µM.
The matching figures for `COc1cc(-c2cc3c(s2)CCN(CCF)C3)cc(C=O)c1O` [compound 16, 5-(5-(2-fluoroethyl)-4,5,6,7-tetrahydrothieno[3,2-c]pyridin-2-yl)-2-hydroxy-3-methoxybenzaldehyde]: 5.9 µM and 6.9 µM.
The matching figures for `OCc1cc(/C=C/c2ccc(N3CCCC3)cc2)cc(F)c1O` [compound 90, (E)-2-fluoro-6-(hydroxymethyl)-4-(4-(pyrrolidin-1-yl)styryl)phenol]: 5.4 µM and 8.5 µM.
On to `Oc1c(F)cc(/C=C/c2ccc(N3CCCC3)cc2)cc1C1OCCCO1` [compound 75, (E)-2-(1,3-dioxan-2-yl)-6-fluoro-4-(4-(pyrrolidin-1-yl)styryl)phenol], for which the concentration for half-maximal inhibition (IC50) in assay [1] was 1.2 µM; in assay [2], 1.3 µM.
For `O=Cc1cc(/C=C/c2ccccn2)cc(F)c1O` [compound 28, (E)-3-fluoro-2-hydroxy-5-(2-(pyridin-2-yl)vinyl)benzaldehyde], the IC50 was 19.5 µM in assay [1] and 29.4 µM in assay [2].
For `O=C(N/N=C/c1cc(/C=C/c2ccc(N3CCCC3)cc2)cc(F)c1O)c1ccccc1` [compound 80, N′-((E)-3-fluoro-2-hydroxy-5-((E)-4-(pyrrolidin-1-yl)styryl)benzylidene)benzohydrazide] the same measures were 28.4 µM and 14.8 µM.
For `O=Cc1cc(/C=C/c2ccc(-n3cccn3)cc2)cc(F)c1O` [compound 57, (E)-5-(4-(1H-pyrazol-1-yl)styryl)-3-fluoro-2-hydroxybenzaldehyde] the same measures were 1.7 µM and 1.9 µM.

The record behind these values is US11345713B2, “Compounds as modulators of TLR2 signaling” (Neuropore Therapies, inc., priority 2018, dated 2022).
